Laboratory results as given in patent US11602147B2, “Nematode control” (University of Idaho, priority 2017, dated 2023).

What was measured:
[1] = pH stability of 4-hydroxybenzyl isothiocyanate in buffered aqueous solutions; assay type: physicochemical
Description: Partially purified 4-hydroxybenzyl isothiocyanate was prepared by suspending 500 grams of S. alba seed meal in 2 liters of deionized water and extracting the mixture with 500 milliliters of ethyl acetate for 24 hours. The ethyl acetate extract was separated by decanting the top organic layer after centrifugation, dried with 100 g of anhydrous sodium sulfate overnight, and concentrated under vacuum at laboratory temperature. The crude 4-hydroxybenzyl isothiocyanate extract was further purified by preparative column chromatography on silica gel (500 grams). […] Content of 4-hydroxybenzyl isothiocyanate within the fractions was verified by GC-MS using instrumentation and conditions as described previously. Fractions containing 4-hydroxybenzyl isothiocyanate were combined and concentrated under vacuum at laboratory temperature producing a yellowish, viscous fluid displaying only 4-hydroxybenzyl isothiocyanate and pentane/methylene chloride solvent peaks in the GC chromatogram. No further concentration of 4-hydroxybenzyl isothiocyanate was achieved using vacuum distillation because of its instability.
Actual pH values of the buffers of 3.03, 3.52, 4.02, 4.49, 5.00, 5.46, 5.91, and 6.52 were verified using an Orion model 420A pH meter (Orion Research, Boston). […]

Globodera pallida eggs = assay: Globodera pallida egg hatching assay after 2-week exposure of encysted eggs; assay type: in vivo
Description: An initial experiment was conducted to determine possible effects of S. alba seed meal on hatch of Globodera pallida eggs. Measuring the percentage egg hatch is a viability indicator and provides an indication of the potential impact from a treatment. In this experiment, Globodera pallida encysted eggs were exposed to S. alba seed meal for 2 weeks in small containers containing a sand:soil mix. The sand:soil mix without seed meal was used as the non-treated control. […] The experiment had two treatments: 1) a non-treated bare soil control; or 2) S. alba seed meal. Each treatment included 5 replicates. Eggs from each of these treatments were exposed to either PRD or SE for 2 weeks, at which time hatched infectious 2nd stage Globodera pallida juveniles (J2) were counted. The objective of this experiment was to determine if 4-hydroxybenzyl alcohol (HBA), the product of enzymatic hydrolysis of the glucosinolate sinalbin contained in S. alba seed meal, could be responsible for the observed enhanced hatch. In an experiment similar to Example 1, encysted eggs were exposed to either HBA, or S. alba seed (yellow mustard) meal. The non-treated eggs were placed in bare soil mix only. After 2 weeks, exposed eggs were placed in hatching assays in either PRD or in soil extract, and hatched J2 were counted. In this experiment, the impact of different application rates of HBA on percent Globodera pallida hatch was investigated (FIG. 13). Again, hatch of the non-treated control was higher in PRD than in soil extract. […] An increase in hatch of approximately 60% occurred with a 1 μmol/ml pre-treatment with HBA prior to PRD exposure.

cotton = conditions: solutions sprayed directly on vegetative growth; cited from earlier work
vegetative cover / weeds = conditions: cited from earlier work
wheat = conditions: effect no longer observed at 69 days post application; cited from earlier work

Oc1ccc(CN=C=S)cc1 [4-hydroxybenzyl isothiocyanate]
half-life at 0.1 % v/v (partially purified extract in buffer) ([1]; 0.1 M sodium citrate/citric acid buffer (aqueous), pH 7.0 (overview text)): < 5 min
stability in aqueous media ([1]; aqueous media): unstable

OCc1ccc(O)cc1 [HBA, 4-hydroxybenzyl alcohol]
increase in hatch (Globodera pallida eggs; 1 μmol/ml pre-treatment with HBA prior to PRD exposure): approximately 60%
hatch enhancement, comparison of application rates (Globodera pallida eggs; 1 μmol/ml versus 2, 4, 8 μmol/ml): enhanced hatch of Globodera pallida more effectively than higher rates tested
increase in Globodera pallida egg hatch compared to non-treated control (Globodera pallida eggs; 2-week exposure in soil mix, then hatched in potato root diffusate (PRD)): 50%

N#CS [SCN^−, ionic thiocyanate]
rate at which cotton defoliation was possible (cotton): 8.6 kilograms SCN^−/ha
rate necessary for complete plant kill (vegetative cover / weeds; for 4 months): 1,366 kg SCN^−/ha
rate removing a large percentage of the weeds (vegetative cover / weeds; in vivo): 137 kilograms SCN^−/ha
application rate causing inhibition of wheat germination (wheat): 342 kilograms SCN^−/ha
